From patent US20240377321A1, “HOLOGRAPHIC IMAGE PROCESSING AND DATA EXTRACTION” (Accelerate Diagnostics, Inc., priority 2023, published 2024)

Tested on: Klebsiella oxytoca (CDCJI 380)
Experiment: holographic monitoring of cellular growth of Klebsiella oxytoca incubated with antibiotic
Assay type: cell-based
Conditions: 0.5 mg/mL Meropenem, about eight hours incubation
Method: FIGS. 18A-18E depict a sequence of photographs A-E of a sample volume 18, with FIG. 18A depicting the earliest photograph, and FIG. 18E depicting the latest photograph. The photographs A-E show cellular growth of Klebsiella oxytoca (CDCJI 380), which was incubated with 0.5 mg/mL of the antibiotic Meropenem over a period of about eight hours. The photographs A-E provide an example of a complex response of microorganisms to an antibiotic. A holograph 32 of the sample volume 18 was captured every ten minutes during the incubation period. FIG. 19 depicts a graph including a plot 170 of a cellular growth indicator (e.g., the holographic intensity variance) extracted from the full holograph 32, and a plot 172 of the cellular growth indicator extracted from the set of pixels comprising tile six of the holograph 32. The times corresponding to the photographs A-E of FIGS. 18A-18E are indicted by correspondingly labeled arrows in the graph of FIG. 19. […] The slight rise in the cellular growth indicator after seven hours is the earliest indication of a potential resurgence of cell growth, e.g., due to the microorganism becoming resistant.
The divergence of tile plot 172 from the full-holograph plot 170 begins at about the three and half hour mark. This is due to the response of the microorganism to the antibiotic in the localized region of the sample volume corresponding to tile six. This region of the sample volume contains a subpopulation of bacterial cells that appear to have become resistant to the antibiotic, and have begun to grow in colony clusters. This example of delayed resistance to an antibiotic is clinically relevant, and recognizing the resistance early in a test can lead to timely administration of the correct antibiotic at the right dose to treat the patient. From an algorithmic perspective, systematically dividing holographs into portions (e.g., tiles) and calculating the cellular growth indicator for each portion can be used to identify events or hot spots in the growth or death of microorganisms.

How did the “cellular growth indicator (e.g., holographic intensity variance) over time, full holograph” value (full-holograph plot 170) turn out when `C[C@@H](O)[C@H]1C(=O)N2C(C(=O)O)=C(S[C@@H]3CN[C@H](C(=O)N(C)C)C3)[C@H](C)[C@H]12` [Meropenem] was run?
Its value is “decreases after three and a half hours of incubation, followed by a slight increase after seven hours of incubation”.

What about the “response of microorganism to antibiotic based on full-holograph plot” value (holograph every ten minutes, full-holograph plot 170) of the same compound?
Its value is “appears to be sensitive to the dose of antibiotic”.

And the “cellular growth indicator over time, tile six of the holograph” value (tile plot 172 (tile six))?
The value was “resurgent growth due to emerging antibiotic resistance at about four and a half hours”.
